Experiment: in vitro
Settings: human, hela cells, % viability

Compound | viability at 28.5 h, 10 µM [%]
CC(C(=O)Nc1c(F)cc(F)cc1OC1CCNCC1)c1ccccc1 (stereo not drawn) [CBK045896T] | 103
O=C(CCOc1ccccc1)Nc1c(F)cc(F)cc1OC1CCNCC1 [CBK045897T] | 105
O=c1c(N2CCN(CCOc3ccccc3)CC2)nccn1CCOc1cc(F)c(F)cc1F [CBK045934C] | 103
CC(NC(=O)N(Cc1ccc(CN)cc1)Cc1ccc2ccccc2c1)c1cccc2ccccc12 (stereo not drawn) [CBK046092C] | 90
NCc1ccc(CN(Cc2ccc(-c3ccccc3)cc2)C(=O)Nc2c(F)cccc2F)cc1 [CBK046115C] | 104
NCc1ccc(CN(Cc2ccc(-c3ccccc3)cc2)C(=O)Nc2ccccc2C(F)(F)F)cc1 [CBK046116C] | 86.3
CC(NC(=O)N(Cc1ccc(CN)cc1)Cc1cnc(-c2ccccc2)[nH]1)c1cccc2ccccc12 (stereo not drawn) [CBK046149C] | 97.1
NCCN(Cc1cccc(Cl)c1)C(=O)NC(c1ccccc1)c1ccccc1 [CBK046203C] | 90.8
Cc1cccc(CN(CCN)C(=O)NC2C[C@H]2c2ccccc2)n1 (stereo partly drawn) [CBK046220C] | 120
Cc1cccc(CN(CCN)C(=O)Nc2ccc(C(C)(C)C)cc2)n1 [CBK046230C] | 96.4
CC(C)(C)c1ccc(NC(=O)N(CCN)Cc2c[nH]c(-c3ccccc3)n2)cc1 [CBK046297C] | 64.9
Cc1ccc(NS(=O)(=O)c2cc3c(OC4CCNCC4)nccc3s2)cc1 [CBK046309C] | 96
COc1ccc([C@@]23CC[C@@H](C(=O)Nc4ccc(C(F)(F)F)cn4)C[C@@H]2N(C)CC3)cc1OC [CBK046310T] | 87.3
NCC(=O)Nc1ccc(F)c(F)c1 [CBK046313] | 103
NCC(=O)Nc1ccc(Cl)c(Cl)c1 [CBK046317] | 94.3
CC(=O)NCc1ccc(C)n1C [CBK046356] | 106
CC(C)(CC(=O)O)CC(=O)N1CCCC1c1nc(-c2ccccc2)c2ccccn12 (stereo not drawn) [CBK046399] | 98.8

Compound | viability at 28.5 h, 10 µM [%]
CCc1ccc(OCCNc2cc(N3CCN(CCO)CC3)ccc2[N+](=O)[O-])cc1 [CBK046496] | 91.7
CCOC(=O)CNC(=O)N1CCCC1c1nc(-c2ccccc2)c2ccccn12 (stereo not drawn) [CBK046502] | 103
Cc1ccc(-c2nc(C3CCCN3C(=O)C3CC3C(=O)O)n3ccccc23)cc1 (stereo not drawn) [CBK046559] | 79.8
COC(=O)c1ccc(NC(=O)N2CCCC2c2nc(-c3ccccc3)c3ccccn23)cc1 (stereo not drawn) [CBK046725] | 102
Cc1ccccc1NC(=O)N1CCC2(CC1)NCCc1c2[nH]c2ccc(O)cc12 [CBK046904] | 91
CC(C)NC(=O)N1CCCC1c1nc(-c2ccc(Cl)cc2)c2ccccn12 (stereo not drawn) [CBK046947] | 84
CC(C)NC(=O)N1CCCC2(C1)NCCc1c2[nH]c2ccccc12 (stereo not drawn) [CBK046952] | 86.7
CCC(C)(CC(=O)O)CC(=O)N1CCC2(C1)NCCc1c2[nH]c2ccccc12 (stereo not drawn) [CBK047003] | 88.5
C/C(C(=O)O)=C(/C)C(=O)N1CCC2(CC1)NCCc1c2[nH]c2ccc(C)cc12 [CBK047026] | 100
O=C(O)/C(Cl)=C(\Cl)C(=O)N1CCC2(CC1)OCCc1c2[nH]c2ccccc12 [CBK047035] | 85
C[C@H](NC(=O)N1CCC2(CC1)NCCc1c2[nH]c2ccc(Cl)cc12)c1ccccc1 [CBK047046] | 90
CCC(C)(CC(=O)O)CC(=O)N1CCC2(CC1)OCCc1c2[nH]c2ccccc12 (stereo not drawn) [CBK047051] | 102
Cc1ccc2[nH]c3c(c2c1)CCNC31CCN(C(=O)Nc2c(C)noc2C)CC1 [CBK047071] | 83.1
COc1ccc2[nH]c3c(c2c1)CCOC31CCN(C(=O)N[C@@H](C)c2ccccc2)CC1 [CBK047114] | 98.5
O=C(NCCc1cccs1)N1CCC2(CC1)OCCc1c2[nH]c2ccccc12 [CBK047129] | 85.4
COc1ccc2[nH]c3c(c2c1)CCOC31CCN(C(=O)Nc2ccc(C(C)C)cc2)CC1 [CBK047154] | 95.5

From paper PMC12040169 (PLOS Biology, 2025)
